Experimental data as given in patent US12404239B2, “Modulators of BCL6 as ligand directed degraders” (Celgene Corporation, priority 2022, dated 2025).

Molecular target: T1, BCL6 (Homo sapiens, UniProt P41182)
T1 construct: HiBiT-tag knocked into endogenous BCL6 locus using CRISPR; endogenous in cells; host or cells: DHL-4_BCL6_HiBiT cells (CRISPR knock-in)
Assay: BCL6_HiBiT degradation assay (2 h)
Assay type: cell-based
Conditions: DHL-4_BCL6_HiBiT cells, read-out: YCon (% remaining maximal effect)
In short: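 DHL-4 cells carrying CRISPR HiBiT knock-in at endogenous BCL6, treated 2 h at 37 °C with 10-point 3-fold dilutions from 1-10 μM. BCL6 level read by Nano-Glo HiBiT lytic luminescence normalized to DMSO; four-parameter fit gives degradation EC50 and Yconstant (% remaining at maximal effect).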

`C[C@@H]1CN(c2ncc(Cl)c(Nc3ccc4c(c3)CC(=O)N4C)n2)CC[C@H]1Nc1cc2c(cn1)c(C1CCC(=O)NC1=O)nn2C` (stereo partly drawn) [Example 86, 3-(6-(((3R,4R)-1-(5-chloro-4-((1-methyl-2-oxoindolin-5-yl)amino)pyrimidin-2-yl)-3-methylpiperidin-4-yl)amino)-1-methyl-1H-pyrazolo[4,3-c]pyridin-3-yl)piperidine-2,6-dione] and `C[C@@H]1CN(c2ncc(Cl)c(Nc3cc4c(cc3F)N(C)C(=O)C4)n2)CC[C@H]1Nc1ccc2c(C3CCC(=O)NC3=O)nn(C)c2c1` (stereo partly drawn) [Example 92, 3-(6-(((3R,4R)-1-(5-chloro-4-((6-fluoro-1-methyl-2-oxoindolin-5-yl)amino)pyrimidin-2-yl)-3-methylpiperidin-4-yl)amino)-1-methyl-1H-indazol-3-yl)piperidine-2,6-dione] cannot be ordered by Percent BCL6 remaining at maximal degradation (Ycon): < 20% for the first, < 20% for the second.

`CCN1C(=O)Cc2cc(Nc3nc(N4CCC(Nc5ccc6c(C7CCC(=O)NC7=O)nn(C)c6c5)CC4)ncc3Cl)ccc21` (stereo not shown) [Example 89, 3-(6-((1-(5-chloro-4-((1-ethyl-2-oxoindolin-5-yl)amino)pyrimidin-2-yl)piperidin-4-yl)amino)-1-methyl-1H-indazol-3-yl)piperidine-2,6-dione] and `CN1C(=O)Cc2cc(Nc3nc(N4CCC(c5ccc6c(C7CCC(=O)NC7=O)nn(C)c6c5)CC4)ncc3Cl)ccc21` (stereo not shown) [Example 125, 3-(6-(1-(5-Chloro-4-((1-methyl-2-oxoindolin-5-yl)amino)pyrimidin-2-yl)piperidin-4-yl)-1-methyl-1H-indazol-3-yl)piperidine-2,6-dione] cannot be ordered by Percent BCL6 remaining at maximal degradation (Ycon): > 60% for the first, > 60% for the second.

`C[C@@H]1CN(c2ncc(Cl)c(Nc3cc(F)c4c(c3)CC(=O)N4C)n2)CC[C@H]1Nc1ccc2c(C3CCC(=O)NC3=O)nn(C)c2c1` (stereo partly drawn) [Example 95, 3-(6-(((3R,4R)-1-(5-chloro-4-((7-fluoro-1-methyl-2-oxoindolin-5-yl)amino)pyrimidin-2-yl)-3-methylpiperidin-4-yl)amino)-1-methyl-1H-indazol-3-yl)piperidine-2,6-dione] and `C[C@@H]1CN(c2ncc(C#N)c(Nc3cc(F)c4c(c3)CC(=O)N4C)n2)CC[C@H]1Nc1ccc2c(C3CCC(=O)NC3=O)nn(C)c2c1` (stereo partly drawn) [Example 116, 2-((3R,4R)-4-((3-(2,6-dioxopiperidin-3-yl)-1-methyl-1H-indazol-6-yl)amino)-3-methylpiperidin-1-yl)-4-((7-fluoro-1-methyl-2-oxoindolin-5-yl)amino)pyrimidine-5-carbonitrile] cannot be ordered by Percent BCL6 remaining at maximal degradation (Ycon): < 20% for the first, < 20% for the second.

`C[C@@H]1CN(c2ncc(Cl)c(Nc3ccc4c(c3F)CC(=O)N4C)n2)CC[C@H]1Nc1ccc2c(C3CCC(=O)NC3=O)nn(C)c2c1` (stereo partly drawn) [Example 98, 3-(6-(((3R,4R)-1-(5-chloro-4-((4-fluoro-1-methyl-2-oxoindolin-5-yl)amino)pyrimidin-2-yl)-3-methylpiperidin-4-yl)amino)-1-methyl-1H-indazol-3-yl)piperidine-2,6-dione] and `C[C@@H]1CN(c2ncc(C#N)c(Nc3ccc4c(c3F)CC(=O)N4C)n2)CC[C@H]1Nc1ccc2c(C3CCC(=O)NC3=O)nn(C)c2c1` (stereo partly drawn) [Example 118, 2-((3R,4R)-4-((3-(2,6-dioxopiperidin-3-yl)-1-methyl-1H-indazol-6-yl)amino)-3-methylpiperidin-1-yl)-4-((4-fluoro-1-methyl-2-oxoindolin-5-yl)amino)pyrimidine-5-carbonitrile] cannot be ordered by Percent BCL6 remaining at maximal degradation (Ycon): < 20% for the first, < 20% for the second.

`C[C@@H]1CN(c2ncc(Cl)c(Nc3ccc4c(c3)CC(=O)N4CCN3CCOCC3)n2)CC[C@H]1Nc1ccc2c(C3CCC(=O)NC3=O)nn(C)c2c1` (stereo partly drawn) [Example 101, 3-(6-(((3R,4R)-1-(5-chloro-4-((1-(2-morpholinoethyl)-2-oxoindolin-5-yl)amino)pyrimidin-2-yl)-3-methylpiperidin-4-yl)amino)-1-methyl-1H-indazol-3-yl)piperidine-2,6-dione] and `CNCCN1C(=O)Cc2cc(Nc3nc(N4CC[C@@H](Nc5ccc6c(C7CCC(=O)NC7=O)nn(C)c6c5)[C@H](C)C4)ncc3Cl)ccc21` (stereo partly drawn) [Example 104, 3-(6-(((3R,4R)-1-(5-chloro-4-((1-(2-(methylamino)ethyl)-2-oxoindolin-5-yl)amino)pyrimidin-2-yl)-3-methylpiperidin-4-yl)amino)-1-methyl-1H-indazol-3-yl)piperidine-2,6-dione] cannot be ordered by Percent BCL6 remaining at maximal degradation (Ycon): < 20% for the first, < 20% for the second.

`C[C@@H]1CN(c2ncc(Cl)c(Nc3ccc4c(c3)CC(=O)N4CCC(C)(C)F)n2)CC[C@H]1Nc1ccc2c(C3CCC(=O)NC3=O)nn(C)c2c1` (stereo partly drawn) [Example 107, 3-(6-(((3R,4R)-1-(5-chloro-4-((1-(3-fluoro-3-methylbutyl)-2-oxoindolin-5-yl)amino)pyrimidin-2-yl)-3-methylpiperidin-4-yl)amino)-1-methyl-1H-indazol-3-yl)piperidine-2,6-dione] and `C[C@@H]1CN(c2ncc(Cl)c(Nc3ccc4c(c3)CC(=O)N4CC(C)(C)F)n2)CC[C@H]1Nc1ccc2c(C3CCC(=O)NC3=O)nn(C)c2c1` (stereo partly drawn) [Example 121, 3-(6-(((3R,4R)-1-(5-chloro-4-((1-(2-fluoro-2-methylpropyl)-2-oxoindolin-5-yl)amino)pyrimidin-2-yl)-3-methylpiperidin-4-yl)amino)-1-methyl-1H-indazol-3-yl)piperidine-2,6-dione] cannot be ordered by Percent BCL6 remaining at maximal degradation (Ycon): < 20% for the first, < 20% for the second.

`C[C@@H]1CN(c2ncc(Cl)c(Nc3ccc4c(c3)CC(=O)N4CC(C)(F)F)n2)CC[C@H]1Nc1ccc2c(C3CCC(=O)NC3=O)nn(C)c2c1` (stereo partly drawn) [Example 110, 3-(6-(((3R,4R)-1-(5-chloro-4-((1-(2,2-difluoropropyl)-2-oxoindolin-5-yl)amino)pyrimidin-2-yl)-3-methylpiperidin-4-yl)amino)-1-methyl-1H-indazol-3-yl)piperidine-2,6-dione] and `C[C@@H]1CN(c2ncc(Cl)c(Nc3ccc4c(c3)CC(=O)N4CCCC(F)(F)F)n2)CC[C@H]1Nc1ccc2c(C3CCC(=O)NC3=O)nn(C)c2c1` (stereo partly drawn) [Example 119, 3-(6-(((3R,4R)-1-(5-chloro-4-((2-oxo-1-(4,4,4-trifluorobutyl)indolin-5-yl)amino)pyrimidin-2-yl)-3-methylpiperidin-4-yl)amino)-1-methyl-1H-indazol-3-yl)piperidine-2,6-dione] cannot be ordered by Percent BCL6 remaining at maximal degradation (Ycon): < 20% for the first, < 20% for the second.

`C[C@@H]1CN(c2ncc(C#N)c(Nc3ccc4c(c3)CC(=O)N4C)n2)CC[C@H]1Nc1ccc2c(C3CCC(=O)NC3=O)nn(C)c2c1` (stereo partly drawn) [Example 113, 2-((3R,4R)-4-((3-(2,6-dioxopiperidin-3-yl)-1-methyl-1H-indazol-6-yl)amino)-3-methylpiperidin-1-yl)-4-((1-methyl-2-oxoindolin-5-yl)amino)pyrimidine-5-carbonitrile] and `C[C@@H]1CN(c2ncc(C#N)c(Nc3cc4c(cc3F)N(C)C(=O)C4)n2)CC[C@H]1Nc1ccc2c(C3CCC(=O)NC3=O)nn(C)c2c1` (stereo partly drawn) [Example 117, 2-((3R,4R)-4-((3-(2,6-dioxopiperidin-3-yl)-1-methyl-1H-indazol-6-yl)amino)-3-methylpiperidin-1-yl)-4-((6-fluoro-1-methyl-2-oxoindolin-5-yl)amino)pyrimidine-5-carbonitrile] cannot be ordered by Percent BCL6 remaining at maximal degradation (Ycon): < 20% for the first, < 20% for the second.

`C[C@@H]1CN(c2ncc(Cl)c(Nc3ccc4c(c3)CC(=O)N4)n2)CC[C@H]1Nc1ccc2c(C3CCC(=O)NC3=O)nn(C)c2c1` (stereo partly drawn) [Example 114, 3-(6-(((3R,4R)-1-(5-chloro-4-((2-oxoindolin-5-yl)amino)pyrimidin-2-yl)-3-methylpiperidin-4-yl)amino)-1-methyl-1H-indazol-3-yl)piperidine-2,6-dione] and `CC(C)N1C(=O)Cc2cc(Nc3nc(N4CC[C@@H](Nc5ccc6c(C7CCC(=O)NC7=O)nn(C)c6c5)[C@H](C)C4)ncc3Cl)ccc21` (stereo partly drawn) [Example 115, 3-(6-(((3R,4R)-1-(5-chloro-4-((1-isopropyl-2-oxoindolin-5-yl)amino)pyrimidin-2-yl)-3-methylpiperidin-4-yl)amino)-1-methyl-1H-indazol-3-yl)piperidine-2,6-dione] cannot be ordered by Percent BCL6 remaining at maximal degradation (Ycon): < 20% for the first, < 20% for the second.

`C[C@@H]1CN(c2ncc(Cl)c(Nc3ccc4c(c3)N(CCC(C)(C)O)C(=O)C4)n2)CC[C@H]1Nc1ccc2c(C3CCC(=O)NC3=O)nn(C)c2c1` (stereo partly drawn) [Example 120, 3-(6-(((3R,4R)-1-(5-chloro-4-((1-(3-hydroxy-3-methylbutyl)-2-oxoindolin-6-yl)amino)pyrimidin-2-yl)-3-methylpiperidin-4-yl)amino)-1-methyl-1H-indazol-3-yl)piperidine-2,6-dione] and `Cc1nc(N2CC[C@@H](Nc3ccc4c(C5CCC(=O)NC5=O)nn(C)c4c3)[C@H](C)C2)nc(Nc2ccc3c(c2)CC(=O)N3C)c1Cl` (stereo partly drawn) [Example 122, 3-(6-(((3R,4R)-1-(5-chloro-4-methyl-6-((1-methyl-2-oxoindolin-5-yl)amino)pyrimidin-2-yl)-3-methylpiperidin-4-yl)amino)-1-methyl-1H-indazol-3-yl)piperidine-2,6-dione] cannot be ordered by Percent BCL6 remaining at maximal degradation (Ycon): < 20% for the first, < 20% for the second.

First: C[C@@H]1CN(c2nc(F)c(Cl)c(Nc3ccc4c(c3)CC(=O)N4C)n2)CC[C@H]1Nc1ccc2c(C3CCC(=O)NC3=O)nn(C)c2c1 (stereo partly drawn) [Example 123, 3-(6-(((3R,4R)-1-(5-chloro-4-fluoro-6-((1-methyl-2-oxoindolin-5-yl)amino)pyrimidin-2-yl)-3-methylpiperidin-4-yl)amino)-1-methyl-1H-indazol-3-yl)piperidine-2,6-dione]
Second: Cn1nc(C2CCC(=O)NC2=O)c2ccc(C3CCN(c4ncc(Cl)c(Nc5ccc6c(c5)CC(=O)N6)n4)CC3)cc21 (stereo not shown) [Example 124, 3-[6-[1-[5-chloro-4-[(2-oxoindolin-5-yl)amino]pyrimidin-2-yl]-4-piperidyl]-1-methyl-indazol-3-yl]piperidine-2,6-dione]
The Percent BCL6 remaining at maximal degradation (Ycon) of the first is lower: < 20% for the first, > 60% for the second.
